Laboratory results taken from PubChem BioAssay AID256 (DTP/NCI, 2004).
“And” between values parts separate entries of the source, which are not always exact repeats. Identical values can stand only once. Toxic doses and inconclusive results are not listed.

Test system: CD2F1 mice, L1210 leukemia ip, survival T/C
Assay: NCI In Vivo Anticancer Drug Screen. Data for tumor model L1210 Leukemia (intraperitoneal) in CD2F1 (CDF1) mice
Conditions: higher = longer survival
Procedure, shortened: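 Vehicle-treated tumor-bearing mice served as controls (C) for compound-treated mice (T). Reported figure is T divided by C.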

[1] = endpoint: mean survival time, dose: 100.0 mg/kg/injection, schedule: Q01DX001 (ip), vehicle: saline
[2] = endpoint: mean survival time, dose: 200.0 mg/kg/injection, schedule: Q01DX001 (ip), vehicle: saline
[3] = endpoint: mean survival time, dose: 400.0 mg/kg/injection, schedule: Q01DX001 (ip), vehicle: saline
[4] = endpoint: mean survival time, dose: 50.0 mg/kg/injection, schedule: Q01DX009 (ip), vehicle: saline with Tween-80
[5] = endpoint: mean survival time, dose: 100.0 mg/kg/injection, schedule: Q01DX009 (ip), vehicle: saline with Tween-80
[6] = endpoint: mean survival time, dose: 100.0 mg/kg/injection, schedule: Q04DX002 (ip), vehicle: saline with Tween-80
[7] = endpoint: mean survival time, dose: 200.0 mg/kg/injection, schedule: Q04DX002 (ip), vehicle: saline with Tween-80
[8] = endpoint: mean survival time, dose: 400.0 mg/kg/injection, schedule: Q04DX002 (ip), vehicle: saline with Tween-80
[9] = endpoint: mean survival time, dose: 100.0 mg/kg/injection, schedule: Q04DX003 (ip), vehicle: saline
[10] = endpoint: mean survival time, dose: 200.0 mg/kg/injection, schedule: Q04DX003 (ip), vehicle: saline
[11] = endpoint: mean survival time, dose: 400.0 mg/kg/injection, schedule: Q04DX003 (ip), vehicle: saline
[12] = endpoint: mean survival time, dose: 100.0 mg/kg/injection, schedule: Q01DX001 (ip), vehicle: saline with Tween-80
[13] = endpoint: mean survival time, dose: 200.0 mg/kg/injection, schedule: Q01DX001 (ip), vehicle: saline with Tween-80
[14] = endpoint: mean survival time, dose: 200.0 mg/kg/injection, schedule: Q01DX009 (ip), vehicle: saline with Tween-80
[15] = endpoint: mean survival time, dose: 150.0 mg/kg/injection, schedule: Q01DX001 (ip), vehicle: saline
[16] = endpoint: median survival time, dose: 12.5 mg/kg/injection, schedule: Q04DX003 (ip), vehicle: saline
[17] = endpoint: median survival time, dose: 25.0 mg/kg/injection, schedule: Q04DX003 (ip), vehicle: saline
[18] = endpoint: median survival time, dose: 50.0 mg/kg/injection, schedule: Q04DX003 (ip), vehicle: saline
[19] = endpoint: median survival time, dose: 100.0 mg/kg/injection, schedule: Q04DX003 (ip), vehicle: saline

COC(=O)c1ccccc1NCC(O)C(O)C(O)CO (configuration not stated) was tested, and the T/C [1] was 98 % of control, the T/C [2] was 101 % of control and the T/C [3] was 86 % of control.

In the case of C=CCNC(C)=O, the T/C [1] is reported as 103 % of control, the T/C [2] is reported as 97 % of control and the T/C [3] is reported as 103 % of control.

In the case of C=C(COC(C)(C)C)CN(C)C, the T/C [4] is reported as 98 % of control and the T/C [5] is reported as 104 % of control.

For O=C(O)COc1cc(F)c(Cl)cc1F, the T/C [6] was 102 % of control, the T/C [7] was 105 % of control and the T/C [8] was 109 % of control.

For C=CCc1ccccc1OC, the T/C [9] was 95 % of control, the T/C [10] was 104 % of control and the T/C [11] was 95 % of control.

With CCCC(O)C(CC)[N+](=O)[O-] (configuration not stated) the T/C [12] was 102 % of control, the T/C [13] was 98 % of control and the T/C (endpoint: mean survival time, dose: 400.0 mg/kg/injection, schedule: Q01DX001 (ip), vehicle: saline with Tween-80) was 94 % of control.

With CCCC[N+](CCCC)(CCCC)CCCC.[O-][PH+](O)O[PH+]([O-])O.[O-][PH+](O)O[PH+]([O-])O.[O-][PH+](O)O[PH+]([O-])O.[O-][PH+](O)O[PH+]([O-])O.[Pt+2].[Pt+2] the T/C (endpoint: median survival time, dose: 10.0 mg/kg/injection, schedule: Q04DX003 (ip), vehicle: water) was 100 % of control and the T/C (endpoint: median survival time, dose: 40.0 mg/kg/injection, schedule: Q04DX003 (ip), vehicle: water) was 105 % of control.

With O=C(O)c1ccccc1C(=O)c1ccccc1 the T/C (endpoint: mean survival time, dose: 100.0 mg/kg/injection, schedule: Q01DX009 (ip), vehicle: saline) was 97 % of control, the T/C [9] was 90 % of control and the T/C (endpoint: mean survival time, dose: 200.0 mg/kg/injection, schedule: Q01DX009 (ip), vehicle: saline) was 101 % of control. For the same molecule, the T/C [10] was 95 % of control, the T/C (endpoint: mean survival time, dose: 400.0 mg/kg/injection, schedule: Q01DX009 (ip), vehicle: saline) was 101 % of control and the T/C [11] was 103 % of control.

In the case of O=C(O)C(F)(F)F, the T/C [5] is reported as 100 % of control, the T/C [9] is reported as 102 % of control and the T/C [14] is reported as 103 % of control. For the same molecule, the T/C [10] was 96 % of control, the T/C (endpoint: mean survival time, dose: 400.0 mg/kg/injection, schedule: Q01DX009 (ip), vehicle: saline with Tween-80) was 100 % of control and the T/C [11] was 102 % of control.

For CSc1ccccc1C1=CCCCCC1, the T/C [4] was 103 % of control, the T/C [12] was 96 % of control and the T/C [5] was 93 % of control. The T/C [13] was 94 % of control and the T/C [14] was 94 % of control.

For COc1ccc2c(Cc3ccc(O)cc3)cncc2c1O, the T/C (endpoint: mean survival time, dose: 75.0 mg/kg/injection, schedule: Q01DX001 (ip), vehicle: saline) was 100 % of control, the T/C [15] was 106 % of control and the T/C (endpoint: mean survival time, dose: 300.0 mg/kg/injection, schedule: Q01DX001 (ip), vehicle: saline) was 98 % of control.

With CCCCN(CNC(C)=O)N=O the T/C [6] was 95 % of control, the T/C [7] was 88 % of control and the T/C [8] was 100 % of control.

In the case of CC(=O)OCC(C(=O)OC1CC2C3OC3C(C1)N2C)c1ccccc1 (configuration not stated), the T/C [16] is reported as 100 % of control, the T/C [17] is reported as 100 % of control and the T/C [18] is reported as 88 % of control. For the same molecule, the T/C [19] was 88 % of control.

In the case of CCC1CN2C(=N1)c1ccccc1-c1cc(Cl)ccc12 (configuration not stated), the T/C (endpoint: mean survival time, dose: 10.0 mg/kg/injection, schedule: Q04DX003 (ip), vehicle: Klucel (hydroxypropylcellulose) (HPC)) is reported as 98 % of control and the T/C (endpoint: mean survival time, dose: 20.0 mg/kg/injection, schedule: Q04DX003 (ip), vehicle: Klucel (hydroxypropylcellulose) (HPC)) is reported as 103 % of control.

OCC1OCOC(CO)C(O)C1O (configuration not stated) was tested, and the T/C (endpoint: mean survival time, dose: 100.0 mg/kg/injection, schedule: Q04DX002 (ip), vehicle: saline) was 114 % of control, the T/C (endpoint: mean survival time, dose: 200.0 mg/kg/injection, schedule: Q04DX002 (ip), vehicle: saline) was 111 % of control and the T/C (endpoint: mean survival time, dose: 400.0 mg/kg/injection, schedule: Q04DX002 (ip), vehicle: saline) was 100 % of control.

For O=C(NNC(=O)c1cccnc1)Nc1cccc(Cl)c1Cl, the T/C [4] was 94 % of control and the T/C [14] was 101 % of control.

On1ccc(=S)c2ccccc21 was tested, and the T/C (endpoint: mean survival time, dose: 100.0 mg/kg/injection, schedule: Q04DX003 (ip), vehicle: saline with Tween-80) was 102 % of control, the T/C (endpoint: mean survival time, dose: 200.0 mg/kg/injection, schedule: Q04DX003 (ip), vehicle: saline with Tween-80) was 96 % of control and the T/C (endpoint: mean survival time, dose: 400.0 mg/kg/injection, schedule: Q04DX003 (ip), vehicle: saline with Tween-80) was 102 % of control.

For Oc1ccc(N=Cc2ccccc2O)cc1, the T/C (endpoint: mean survival time, dose: 178.0 mg/kg/injection, schedule: Q04DX003 (ip), vehicle: carboxymethylcellulose (CMC)) was 101 % of control, the T/C (endpoint: mean survival time, dose: 267.0 mg/kg/injection, schedule: Q04DX003 (ip), vehicle: carboxymethylcellulose (CMC)) was 102 % of control and the T/C (endpoint: mean survival time, dose: 400.0 mg/kg/injection, schedule: Q04DX003 (ip), vehicle: carboxymethylcellulose (CMC)) was 98 % of control. The T/C (endpoint: mean survival time, dose: 600.0 mg/kg/injection, schedule: Q04DX003 (ip), vehicle: carboxymethylcellulose (CMC)) was 101 % of control.

For O=[N+]([O-])c1cc([N+](=O)[O-])c(Cl)s1, the T/C (endpoint: mean survival time, dose: 12.5 mg/kg/injection, schedule: Q04DX003 (ip), vehicle: saline with Tween-80) was 92 % of control, the T/C (endpoint: mean survival time, dose: 25.0 mg/kg/injection, schedule: Q04DX003 (ip), vehicle: saline with Tween-80) was 91 % of control and the T/C (endpoint: mean survival time, dose: 50.0 mg/kg/injection, schedule: Q04DX003 (ip), vehicle: saline with Tween-80) was 88 % of control.

In the case of CCn1cnc2c(=S)nc[nH]c21, the T/C (endpoint: mean survival time, dose: 9.4 mg/kg/injection, schedule: Q03HX024 (ip), vehicle: saline) is reported as 107 % of control, the T/C (endpoint: mean survival time, dose: 15.0 mg/kg/injection, schedule: Q01DX009 (ip), vehicle: saline) is reported as 104 % of control and the T/C (endpoint: mean survival time, dose: 15.0 mg/kg/injection, schedule: Q03HX008 (ip), vehicle: saline) is reported as 121 % of control. For the same molecule, the T/C (endpoint: mean survival time, dose: 18.8 mg/kg/injection, schedule: Q03HX016 (ip), vehicle: saline) was 101 % of control, the T/C (endpoint: mean survival time, dose: 30.0 mg/kg/injection, schedule: Q01DX009 (ip), vehicle: saline) was 113 % of control and the T/C (endpoint: mean survival time, dose: 37.5 mg/kg/injection, schedule: Q03HX024 (ip), vehicle: saline) was 156 % of control. The T/C (endpoint: mean survival time, dose: 56.3 mg/kg/injection, schedule: Q03HX024 (ip), vehicle: saline) was 163 % of control, the T/C (endpoint: mean survival time, dose: 60.0 mg/kg/injection, schedule: Q03HX008 (ip), vehicle: saline) was 161 % of control and the T/C (endpoint: mean survival time, dose: 75.0 mg/kg/injection, schedule: Q03DX003 (ip), vehicle: saline) was 101 % of control. The T/C (endpoint: mean survival time, dose: 75.0 mg/kg/injection, schedule: Q03HX016 (ip), vehicle: saline) was 161 % of control, the T/C (endpoint: mean survival time, dose: 75.0 mg/kg/injection, schedule: Q04DX003 (ip), vehicle: saline) was 108 % of control and 109 % of control and the T/C (endpoint: mean survival time, dose: 120.0 mg/kg/injection, schedule: Q01DX009 (ip), vehicle: saline) was 87 % of control. For the same molecule, the T/C [15] was 115 % of control, the T/C (endpoint: mean survival time, dose: 150.0 mg/kg/injection, schedule: Q01DX007 (ip), vehicle: saline) was 96 % of control and the T/C (endpoint: mean survival time, dose: 150.0 mg/kg/injection, schedule: Q01DX009 (ip), vehicle: saline) was 106 % of control. The T/C (endpoint: mean survival time, dose: 150.0 mg/kg/injection, schedule: Q03DX003 (ip), vehicle: saline) was 112 % of control, the T/C (endpoint: mean survival time, dose: 300.0 mg/kg/injection, schedule: Q04DX003 (ip), vehicle: saline) was 112 % of control and the T/C (endpoint: mean survival time, dose: 300.0 mg/kg/injection, schedule: Q08DX002 (ip), vehicle: saline) was 151 % of control. The T/C (endpoint: mean survival time, dose: 600.0 mg/kg/injection, schedule: Q08DX002 (ip), vehicle: saline) was 105 % of control, the T/C (endpoint: median survival time, dose: 12.5 mg/kg/injection, schedule: Q01DX009 (ip), vehicle: saline with Tween-80) was 118 % of control and the T/C (endpoint: median survival time, dose: 25.0 mg/kg/injection, schedule: Q01DX009 (ip), vehicle: saline with Tween-80) was 118 % of control. The T/C (endpoint: median survival time, dose: 31.3 mg/kg/injection, schedule: Q01DX009 (ip), vehicle: saline) was 100 % of control and 111 % of control, the T/C (endpoint: median survival time, dose: 62.5 mg/kg/injection, schedule: Q01DX009 (ip), vehicle: saline) was 188 % of control and the T/C (endpoint: median survival time, dose: 100.0 mg/kg/injection, schedule: Q01DX009 (ip), vehicle: saline with Tween-80) was 183 % of control. The T/C (endpoint: median survival time, dose: 125.0 mg/kg/injection, schedule: Q01DX009 (ip), vehicle: saline) was 116 % of control and the T/C (endpoint: median survival time, dose: 200.0 mg/kg/injection, schedule: Q01DX009 (ip), vehicle: saline with Tween-80) was 118 % of control.

For CCCN(CCC)CCCCCCO, the T/C [4] was 98 % of control, the T/C [5] was 98 % of control and the T/C [14] was 97 % of control.

COC(=O)CCC([NH-])C(=O)O.COC(=O)CCC([NH-])C(=O)O.[NH-]C1CCCCC1[NH-].[Pt+4] (configuration not stated) was tested, and the T/C (endpoint: median survival time, dose: 6.25 mg/kg/injection, schedule: Q04DX003 (ip), vehicle: saline) was 100 % of control, the T/C [16] was 96 % of control and the T/C [17] was 97 % of control. For the same molecule, the T/C [18] was 108 % of control and the T/C [19] was 110 % of control.
